In patent publication US20040259959A1, “Method and pharmaceutical preparation for reducing the activity of cells” (priority 2001, published 2004):

Experiments:
[1] = test system: MCF-7 mammary cancer cell; experiment: MCF-7 mammary cancer cell proliferation ([3H]thymidine incorporation), stimulated by 3% serum; format: cell-based
Description: (§1) FIG. 1. […] MCF-7 mammary cancer cell were preincubated for 24 hours in 0.5% serum and then growth ([^3H]thymidine incorporation) was stimulated by 3% serum. Stimulated cells were treated for 3 days with the indicated concentrations of the astaxanthin alone or in combination with 0.3 μM lycopene (FIG. 1A). The high concentrations of lycopene and astaxanthin (FIG. 1B) are indicated. Data presented are the mean±SE of 2-3 independent experiments performed in quadruplicates.
as §1, with “FIG. 4.” for “FIG. 1.”, “the phytoene and phytofluene (phytoene) mixture” for “the astaxanthin”, “(FIG. 4A).” for “(FIG. 1A).”, “and phytoene plus phytofluene” for “and astaxanthin”, “(FIG. 4B)” for “(FIG. 1B)”
FIG. 5. […] MCF-7 mammary cancer cell were preincubated for 24 hours in 0.5% serum and then growth ([^3H]thymidine incorporation) was stimulated by 3% serum. Stimulated cells were treated for 3 days with the indicated concentrations Of the beta-carotene alone or in combination with 0.3 μM lycopene (FIG. 5A). The high concentrations of lycopene and beta-carotene (FIG. 5B) are indicated. Data presented are the mean±SE of 2-3 independent experiments performed in quadruplicates.

[2] = test system: LNCaP prostate cancer cell; experiment: DHT induced LNCaP prostate cancer cell proliferation ([3H]thymidine incorporation); format: cell-based; settings: 3 days
Description: FIG. 2. […] LNCaP prostate cancer cell were preincubated for 24 hours in 1.5% serum and then growth ([^3]thymidine incorporation) was stimulated by addition of […] (DHT). Stimulated cells were treated for 3 days with the indicated concentrations of the phytoene and phytofluene (phytoene) mixture alone or in combination with 0.3 μM Lycopene (plus lycopene) (FIG. 2A). The high concentrations of lycopene and phytoene plus phytofluene (FIG. 2B) are indicated. Data presented are the mean±SE of 2-3 independent experiments performed in quadruplicates.
FIG. 3. […] LNCaP prostate cancer cell were preincubated for 24 hours in 1.5% serum and then growth ([^3]thynidine incorporation) was stimulated by addition of 10^−9 M dihydrotestosterone DHT). Stimulated cells were treated for 3 days with the indicated concentrations of the beta-carotene alone or in combination with 0.3 μM lycopene (FIG. 3A). The high concentrations of lycopene and beta-carotene (FIG. 3B) are indicated. Data presented are the mean±SE of 2-3 independent experiments performed in quadruplicates.

[3] = subjects receiving high supplementation of lycopene; cited from earlier work
[4] = up to levels of 4 μM; cited from earlier work
[5] = test system: dimethylbenz(a)anthracene(DMBA)/UV-B induced tumors; settings: mice; cited from earlier work
UV-B induced tumors = settings: mice treated with phytoene; cited from earlier work
[6] = test system: H-ras-induced cell transformation; settings: mammalian cells producing phytoene; cited from earlier work

Row | SMILES | effect of lycopene on the inhibitory effects of astaxanthin on mammary cancer cell proliferation ([1]; MCF-7, 0.3 μM lycopene combined with astaxanthin, 3 days, FIG. 1) | effect of lycopene on the inhibitory effects of beta-carotene on mammary cancer cell proliferation ([1]; MCF-7, 0.3 μM lycopene combined with beta-carotene, 3 days, FIG. 5) | effect of lycopene on the inhibitory effects of phytoene and phytofluene on mammary cancer cell proliferation ([1]; MCF-7, 0.3 μM lycopene combined with phytoene and phytofluene mixture, 3 days, FIG. 4) | decrease in proliferation ([1]; breast cancer cells, lycopene alone at low concentration (0.3 μM)) | concentration of lycopene alone giving the same dramatic inhibition of cancer cells as the combination ([1]; lycopene alone) [µM] | effect of lycopene on the inhibitory effects of beta-carotene on DHT induced prostate cancer cell proliferation ([2]; 0.3 μM lycopene combined with beta-carotene, FIG. 3) | effect of lycopene on the inhibitory effects of phytoene and phytofluene on DHT induced prostate cancer cell proliferation ([2]; 0.3 μM lycopene combined with phytoene and phytofluene mixture, FIG. 2) | serum concentration plateau [3] [nM] | in-vitro activity with increasing concentration [4] | treating DMBA/UV-B induced tumors [5] | UV-B induced tumors developed versus control mice (UV-B induced tumors) | resistance to H-ras-induced cell transformation [6]
1 | CC(C)=CCC/C(C)=C/C=C/C(C)=C/C=C/C(C)=C/C=C/C=C(C)/C=C/C=C(C)/C=C/C=C(\C)CCC=C(C)C [lycopene] | enhances the inhibitory effects | enhances the inhibitory effects | enhances the inhibitory effects | no decrease in proliferation | 2 to 3 | enhances the inhibitory effects | enhances the inhibitory effects | 1000 to 1200 | improved activity with the increase of concentration |  |  | 
2 | CC(C)=CCC/C(C)=C/CC/C(C)=C/CC/C(C)=C/C=C/C=C(\C)CC/C=C(\C)CC/C=C(\C)CCC=C(C)C [phytoene] |  |  |  |  |  |  |  |  |  | ineffective | fewer UV-B induced tumors than the control mice | displayed resistance
